In series [1] the target is T1, Fibroblast growth factor receptor 1 (Homo sapiens, UniProt P11362). Briefly: Inhibition of FGFR1 (unknown origin).
In series [2] the target is T2, Fibroblast growth factor receptor 2 (Homo sapiens, UniProt P21802). Kind of series: Inhibition of FGFR2 (unknown origin).
The target of series [3] is T3, Fibroblast growth factor receptor 3 (Homo sapiens, UniProt P22607). Kind of series: Inhibition of FGFR3 (unknown origin).
Series [4] can be described thus: Half life in human. The series is classed as ADME.
Series [5] has as its system Hep 3B2. Kind of series: Antitumor activity against human Hep3B cells xenografted in BALB/c nude mouse assessed as tumor growth inhibition at 100 mg/kg, po relative to control. The format is functional. To be noted: read-out: TGI. For orientation: A xenograft is tissue or cells of one species grown in another, often human tumour cells in immunodeficient mice.
Series [6] concerns the target T1, Fibroblast growth factor receptor 1. Kind of series: Inhibition of N-terminal 6xHis-tagged human FGFR1 (456 to 765 residues) transfected in Escherichia coli Rossetta cells incubated for 30 mins by ADP-Glo assay.
The target in series [7] is T2, Fibroblast growth factor receptor 2. Briefly: Inhibition of N-terminal 6xHis-tagged human FGFR2 (453 to 770 residues) transfected in Escherichia coli Rossetta cells incubated for 30 mins by ADP-Glo assay. (ADP-Glo first removes unused ATP, then detects ADP through luciferase.)
The target of series [8] is T3, Fibroblast growth factor receptor 3. Kind of series: Inhibition of N-terminal 6xHis-tagged human FGFR3 (450 to 758 residues) transfected in Escherichia coli Rossetta cells incubated for 30 mins by ADP-Glo assay.
Series [9] has as its target Fibroblast growth factor receptor 4 (Homo sapiens, UniProt P22455, C477A/C552A). Briefly: Inhibition of FGFR4 C552A/C477A double mutant (unknown origin).
Series [10] has as its target T1, Fibroblast growth factor receptor 1. Briefly: Inhibition of FGFR1 (unknown origin) incubated for 30 mins by ADP-Glo assay.
The target in series [11] is T3, Fibroblast growth factor receptor 3. Briefly: Inhibition of FGFR3 (unknown origin) incubated for 30 mins by ADP-Glo assay.
The test system of series [12] is Huh-7. Briefly: Antiproliferative activity against human Huh-7 cells expressing FGFR2 assessed as reduction in cell viability incubated for 48 hrs by MTT assay. The series is classed as functional, cell-based. To be noted: Huh-7, 48 h. In general terms: Tetrazolium dyes change colour on reduction, which living cells bring about.
Series [13] deals with Huh-7. Kind of series: Antiproliferative activity against human Huh-7 cells expressing FGFR3 assessed as reduction in cell viability incubated for 48 hrs by MTT assay. The format is functional, cell-based. To be noted: Huh-7, 48 h.
The subject of series [14] is Hep 3B2. Kind of series: Antiproliferative activity against human Hep3B cells expressing FGFR2 assessed as reduction in cell viability incubated for 48 hrs by MTT assay. The series is classed as functional, cell-based.
Series [15] relates to Hep 3B2. Kind of series: Antiproliferative activity against human Hep3B cells expressing FGFR3 assessed as reduction in cell viability incubated for 48 hrs by MTT assay. The series is classed as functional, cell-based.
Series [16] has as its system Huh-7. Briefly: Antiproliferative activity against FGF19/FGFR4 dependent human Huh-7 cells assessed as reduction in cell viability. The series is classed as functional, cell-based.
For series [17], the system named is Hep 3B2. Kind of series: Antiproliferative activity against FGF19/FGFR4 dependent human Hep3B cells assessed as reduction in cell viability. The format is functional, cell-based.

SMILES strings stand for the structures.

T3 sequence (P22607 whole entry): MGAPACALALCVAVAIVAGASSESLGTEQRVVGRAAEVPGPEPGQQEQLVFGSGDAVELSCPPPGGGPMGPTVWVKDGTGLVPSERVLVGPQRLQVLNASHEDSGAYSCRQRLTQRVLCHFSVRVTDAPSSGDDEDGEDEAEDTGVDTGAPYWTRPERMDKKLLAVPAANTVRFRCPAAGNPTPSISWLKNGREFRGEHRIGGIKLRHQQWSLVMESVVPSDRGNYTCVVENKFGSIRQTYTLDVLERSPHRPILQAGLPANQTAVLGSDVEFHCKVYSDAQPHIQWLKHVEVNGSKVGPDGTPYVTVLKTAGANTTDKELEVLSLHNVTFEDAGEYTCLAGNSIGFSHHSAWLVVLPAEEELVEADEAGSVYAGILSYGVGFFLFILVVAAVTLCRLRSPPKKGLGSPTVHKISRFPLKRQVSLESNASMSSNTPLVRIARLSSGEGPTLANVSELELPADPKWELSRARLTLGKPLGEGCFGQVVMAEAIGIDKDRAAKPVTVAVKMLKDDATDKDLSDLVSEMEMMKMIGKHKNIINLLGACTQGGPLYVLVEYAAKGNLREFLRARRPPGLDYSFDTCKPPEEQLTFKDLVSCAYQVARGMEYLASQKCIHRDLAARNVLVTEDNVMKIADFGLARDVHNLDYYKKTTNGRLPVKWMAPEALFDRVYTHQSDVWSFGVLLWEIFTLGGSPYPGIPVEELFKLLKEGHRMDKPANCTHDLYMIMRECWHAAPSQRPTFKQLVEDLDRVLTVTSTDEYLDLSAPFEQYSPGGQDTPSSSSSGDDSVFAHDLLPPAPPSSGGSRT
T1 sequence (P11362 whole entry): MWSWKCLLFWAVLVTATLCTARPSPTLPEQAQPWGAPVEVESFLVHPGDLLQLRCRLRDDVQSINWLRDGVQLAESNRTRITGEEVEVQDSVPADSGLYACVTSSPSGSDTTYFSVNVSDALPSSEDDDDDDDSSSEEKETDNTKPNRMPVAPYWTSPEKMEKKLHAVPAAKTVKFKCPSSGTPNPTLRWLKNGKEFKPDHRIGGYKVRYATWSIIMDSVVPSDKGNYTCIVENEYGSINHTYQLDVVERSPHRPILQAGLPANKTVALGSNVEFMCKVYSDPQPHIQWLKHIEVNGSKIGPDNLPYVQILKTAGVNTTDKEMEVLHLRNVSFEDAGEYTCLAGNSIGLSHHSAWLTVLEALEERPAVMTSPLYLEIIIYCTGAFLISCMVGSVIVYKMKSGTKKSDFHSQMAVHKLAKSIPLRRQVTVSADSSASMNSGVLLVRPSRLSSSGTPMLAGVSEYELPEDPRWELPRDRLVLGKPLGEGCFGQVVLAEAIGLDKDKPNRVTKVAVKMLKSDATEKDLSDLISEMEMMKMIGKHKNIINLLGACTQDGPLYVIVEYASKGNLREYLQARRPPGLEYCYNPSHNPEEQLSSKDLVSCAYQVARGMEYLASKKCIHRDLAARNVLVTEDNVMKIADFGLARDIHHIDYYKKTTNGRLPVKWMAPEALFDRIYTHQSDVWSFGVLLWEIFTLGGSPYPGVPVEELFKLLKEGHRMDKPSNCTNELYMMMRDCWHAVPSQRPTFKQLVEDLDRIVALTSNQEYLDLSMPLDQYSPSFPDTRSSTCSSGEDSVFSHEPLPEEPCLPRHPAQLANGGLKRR
T2 sequence (P21802 whole entry): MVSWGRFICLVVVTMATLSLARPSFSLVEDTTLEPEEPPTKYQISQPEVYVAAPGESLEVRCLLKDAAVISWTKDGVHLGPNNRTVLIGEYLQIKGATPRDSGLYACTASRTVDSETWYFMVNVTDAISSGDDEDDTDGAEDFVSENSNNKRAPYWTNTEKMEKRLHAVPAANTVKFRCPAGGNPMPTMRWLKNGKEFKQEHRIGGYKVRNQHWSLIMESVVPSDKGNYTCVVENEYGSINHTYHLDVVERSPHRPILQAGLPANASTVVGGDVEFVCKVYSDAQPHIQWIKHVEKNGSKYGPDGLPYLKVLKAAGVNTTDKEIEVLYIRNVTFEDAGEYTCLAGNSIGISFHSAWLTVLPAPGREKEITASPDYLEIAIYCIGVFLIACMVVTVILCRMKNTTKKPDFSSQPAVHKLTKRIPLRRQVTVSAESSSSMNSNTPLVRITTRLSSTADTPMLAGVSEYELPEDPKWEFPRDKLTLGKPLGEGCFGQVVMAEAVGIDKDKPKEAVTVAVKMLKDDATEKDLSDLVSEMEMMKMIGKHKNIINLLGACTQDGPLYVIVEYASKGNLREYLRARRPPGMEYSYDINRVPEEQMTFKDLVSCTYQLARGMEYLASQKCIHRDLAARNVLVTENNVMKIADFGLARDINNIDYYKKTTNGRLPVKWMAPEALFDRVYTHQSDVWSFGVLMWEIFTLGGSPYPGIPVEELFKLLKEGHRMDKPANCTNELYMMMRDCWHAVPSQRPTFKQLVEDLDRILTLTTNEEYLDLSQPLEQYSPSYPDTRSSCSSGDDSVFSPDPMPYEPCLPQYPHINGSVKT
Sequence of Fibroblast growth factor receptor 4 (P22455 22-802 C477A/C552A limits assumed): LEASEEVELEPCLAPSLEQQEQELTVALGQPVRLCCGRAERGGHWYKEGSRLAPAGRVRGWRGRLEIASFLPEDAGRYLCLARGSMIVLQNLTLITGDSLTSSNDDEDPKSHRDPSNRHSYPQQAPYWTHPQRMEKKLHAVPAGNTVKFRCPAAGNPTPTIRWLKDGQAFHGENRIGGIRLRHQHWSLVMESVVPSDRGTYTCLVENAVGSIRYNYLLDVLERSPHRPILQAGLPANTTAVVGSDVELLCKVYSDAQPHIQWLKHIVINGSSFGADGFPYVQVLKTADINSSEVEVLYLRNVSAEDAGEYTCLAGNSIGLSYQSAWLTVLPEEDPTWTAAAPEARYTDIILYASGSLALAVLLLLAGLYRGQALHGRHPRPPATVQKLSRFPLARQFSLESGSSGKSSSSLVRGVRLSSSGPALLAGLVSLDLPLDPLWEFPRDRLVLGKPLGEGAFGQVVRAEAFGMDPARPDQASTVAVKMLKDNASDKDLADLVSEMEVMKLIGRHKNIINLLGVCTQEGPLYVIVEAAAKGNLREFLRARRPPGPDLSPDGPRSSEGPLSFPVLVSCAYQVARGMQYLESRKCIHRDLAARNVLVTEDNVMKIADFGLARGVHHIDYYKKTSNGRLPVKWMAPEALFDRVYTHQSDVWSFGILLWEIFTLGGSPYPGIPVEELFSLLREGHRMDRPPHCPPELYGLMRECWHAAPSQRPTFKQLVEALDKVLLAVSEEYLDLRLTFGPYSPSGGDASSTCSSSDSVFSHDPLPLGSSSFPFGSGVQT

The IC50 is the concentration needed to halve the response being measured. By half-life is commonly meant the time in which the quantity being followed falls by half. Read a high half-life as slow loss. Take `C=CC(=O)N[C@H]1CCOC[C@H]1Nc1ncc2cc(-c3c(Cl)c(OC)cc(OC)c3Cl)ccc2n1` [FISOGATINIB]: the IC50 in series [1] was 591 nM; in series [2] it was 493 nM; in [3], 150 nM. This compound also showed a half-life in series [4] of about 17 h.
Consider `C=CC(=O)Nc1cc(N2CCN(CC)CC2)ccc1Nc1cc(N(C)C(=O)Nc2c(Cl)c(OC)cc(OC)c2Cl)ncn1` [H3B-6527], for which the inhibition in vivo at 100 mg/kg in the series on Hep 3B2 [5] worked out at 109%.
For the compound `C=CC(=O)Nc1ccccc1Nc1ncc2c(n1)N(CCCN1CCN(C(=O)C=C)CC1)C(=O)N(c1c(Cl)c(OC)cc(OC)c1Cl)C2`, the IC50 in series [6] is 2580 nM; in series [7] it was 2410 nM; in series [8], 977 nM; in series [9], 1530 nM.
For `C=CC(=O)Nc1cc(F)cc(Cl)c1Nc1nc(C)c(OCc2c(F)c(OC)cc(OC)c2F)c(C)n1`, the IC50 is over 50000 nM in series [10]; over 30000 nM in [11]; 7100 nM in the series on Huh-7 [12]; 12600 nM with Huh-7 [13]; 900 nM with Hep 3B2 [14]; 4500 nM with Hep 3B2 [15].
Consider `COc1cc(OC)c(Cl)c(-c2ccc3nc(NCCCNC(=O)/C(C#N)=C/C4CC4)ncc3c2)c1Cl`, for which the IC50 turned out to be 9200 nM in the series with Huh-7 [16] and 9000 nM with Hep 3B2 [17].

(Values after ChEMBL document CHEMBL5505951, “Insight into the design of FGFR4 selective inhibitors in cancer therapy: Prospects and challenges” (Eur J Med Chem, 2024).)
